Experimental data reported in ChEMBL document CHEMBL1201862, “PubChem BioAssay data set” (2004).
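These data come from cells grown in 96-well plates and exposed to compound for 48 hours at five concentrations. Abbreviation: GI50, concentration required for 50% inhibition of growth.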 Active and inactive are the calls of the source. Cut-off read from the data, not from the text of the source: active = GI50 up to about 1.1 µM and inactive = higher.

What was measured:
Test in all cases: NCI anticancer screen, dose series, 48 h
786-0 = tested on: 786-0
A498 = tested on: A498
A549 = tested on: A549
ACHN = tested on: ACHN
BT-549 = tested on: BT-549
CAKI-1 = tested on: CAKI-1
CCRF-CEM = tested on: CCRF-CEM
COLO 205 = tested on: COLO 205
DU-145 = tested on: DU-145
EKVX = tested on: EKVX
HCT-116 = tested on: HCT-116
HCT-15 = tested on: HCT-15
HL-60 = tested on: HL-60
HOP-62 = tested on: HOP-62
HOP-92 = tested on: HOP-92
HT-29 = tested on: HT-29
Hs-578T = tested on: Hs-578T
IGROV-1 = tested on: IGROV-1
K562 = tested on: K562
KM12 = tested on: KM12
LOX IMVI = tested on: LOX IMVI
M14 = tested on: M14
MCF7 = tested on: MCF7
MDA-MB-231 = tested on: MDA-MB-231
MDA-MB-435 = tested on: MDA-MB-435
MDA-N = tested on: MDA-N
MOLT-4 = tested on: MOLT-4
Malme-3M = tested on: Malme-3M
NCI-H23 = tested on: NCI-H23
NCI-H460 = tested on: NCI-H460
NCI-H522 = tested on: NCI-H522
NCI/ADR-RES = tested on: NCI/ADR-RES
OVCAR-3 = tested on: OVCAR-3
OVCAR-4 = tested on: OVCAR-4
OVCAR-5 = tested on: OVCAR-5
OVCAR-8 = tested on: OVCAR-8
PC-3 = tested on: PC-3
RPMI-8226 = tested on: RPMI-8226
RXF 393 = tested on: RXF 393
SF-268 = tested on: SF-268
SF-295 = tested on: SF-295
SF-539 = tested on: SF-539
SK-MEL-28 = tested on: SK-MEL-28
SK-MEL-2 = tested on: SK-MEL-2
SK-MEL-5 = tested on: SK-MEL-5
SK-OV-3 = tested on: SK-OV-3
SN12C = tested on: SN12C
SNB-19 = tested on: SNB-19
SR = tested on: SR
SW-620 = tested on: SW-620
T47D = tested on: T47D
TK-10 = tested on: TK-10
U-251 = tested on: U-251
UACC-257 = tested on: UACC-257
UACC-62 = tested on: UACC-62
UO-31 = tested on: UO-31
NCI-H226 = tested on: NCI-H226
SNB-75 = tested on: SNB-75

C=C1C(=O)C=C[C@]2(C)CC[C@H]3C(=C)C(=O)O[C@@H]3[C@@H]12
GI50 (786-0): 0.461 µM (active)
GI50 (A498): 3.52 µM (inactive)
GI50 (A549): 11.6 µM (inactive)
GI50 (ACHN): 0.9 µM (active)
GI50 (BT-549): 2.35 µM (inactive)
GI50 (CAKI-1): 2.22 µM (inactive)
GI50 (CCRF-CEM): 579 nM (active)
GI50 (COLO 205): 0.964 µM (active)
GI50 (DU-145): 2.09 µM (inactive)
GI50 (EKVX): 3.17 µM (inactive)
GI50 (HCT-116): 0.195 µM (active)
GI50 (HCT-15): 785 nM
GI50 (HL-60): 1.9 µM (inactive)
GI50 (HOP-62): 2.48 µM (inactive)
GI50 (HOP-92): 2.87 µM (inactive)
GI50 (HT-29): 1.56 µM (inactive)
GI50 (Hs-578T): 4.1 µM (inactive)
GI50 (IGROV-1): 1.29 µM (inactive)
GI50 (K562): 1.39 µM (inactive)
GI50 (KM12): 1.61 µM (inactive)
GI50 (LOX IMVI): 1.8 µM (inactive)
GI50 (M14): 1.76 µM (inactive)
GI50 (MCF7): 0.738 µM (active)
GI50 (MDA-MB-231): 4.08 µM (inactive)
GI50 (MDA-MB-435): 1.57 µM (inactive)
GI50 (MDA-N): 1.88 µM (inactive)
GI50 (MOLT-4): 0.52 µM (active)
GI50 (Malme-3M): 1.97 µM (inactive)
GI50 (NCI-H23): 2.63 µM (inactive)
GI50 (NCI-H460): 12.1 µM (inactive)
GI50 (NCI-H522): 0.753 µM (active)
GI50 (NCI/ADR-RES): 2.34 µM (inactive)
GI50 (OVCAR-3): 1.85 µM (inactive)
GI50 (OVCAR-4): 2.21 µM (inactive)
GI50 (OVCAR-5): 1.33 µM (inactive)
GI50 (OVCAR-8): 1.53 µM (inactive)
GI50 (PC-3): 2.84 µM (inactive)
GI50 (RPMI-8226): 0.346 µM (active)
GI50 (RXF 393): 1.45 µM (inactive)
GI50 (SF-268): 3.15 µM (inactive)
GI50 (SF-295): 15.1 µM (inactive)
GI50 (SF-539): 0.562 µM (active)
GI50 (SK-MEL-28): 1.91 µM (inactive)
GI50 (SK-MEL-2): 2.55 µM (inactive)
GI50 (SK-MEL-5): 2.34 µM (inactive)
GI50 (SK-OV-3): 8.73 µM (inactive)
GI50 (SN12C): 2.96 µM (inactive)
GI50 (SNB-19): 14.6 µM (inactive)
GI50 (SR): 1.79 µM (inactive)
GI50 (SW-620): 0.813 µM (active)
GI50 (T47D): 2.22 µM (inactive)
GI50 (TK-10): 0.419 µM (active)
GI50 (U-251): 2.13 µM (inactive)
GI50 (UACC-257): 2.67 µM (inactive)
GI50 (UACC-62): 1.96 µM (inactive)
GI50 (UO-31): 1.43 µM (inactive)

O=C(CSc1nc2ccccc2c2ccccc12)c1ccccc1
GI50 (786-0): > 100 µM (inactive)
GI50 (A498): > 100 µM (inactive)
GI50 (A549): > 100 µM (inactive)
GI50 (ACHN): > 100 µM (inactive)
GI50 (BT-549): > 100 µM (inactive)
GI50 (CAKI-1): > 100 µM (inactive)
GI50 (COLO 205): > 100 µM (inactive)
GI50 (DU-145): > 100 µM (inactive)
GI50 (EKVX): > 100 µM (inactive)
GI50 (HCT-116): > 100 µM (inactive)
GI50 (HCT-15): > 100000 nM
GI50 (HL-60): > 100 µM (inactive)
GI50 (HOP-62): > 100 µM (inactive)
GI50 (HOP-92): > 100 µM (inactive)
GI50 (HT-29): > 100 µM (inactive)
GI50 (Hs-578T): 0.0226 µM (active)
GI50 (IGROV-1): > 100 µM (inactive)
GI50 (K562): > 100 µM (inactive)
GI50 (KM12): > 100 µM (inactive)
GI50 (LOX IMVI): > 100 µM (inactive)
GI50 (M14): > 100 µM (inactive)
GI50 (MCF7): > 100 µM (inactive)
GI50 (MDA-MB-231): > 100 µM (inactive)
GI50 (MDA-MB-435): > 100 µM (inactive)
GI50 (MDA-N): > 100 µM (inactive)
GI50 (MOLT-4): > 100 µM (inactive)
GI50 (Malme-3M): > 100 µM (inactive)
GI50 (NCI-H226): > 100 µM (inactive)
GI50 (NCI-H23): > 100 µM (inactive)
GI50 (NCI-H460): > 100 µM (inactive)
GI50 (NCI-H522): > 100 µM (inactive)
GI50 (NCI/ADR-RES): > 100 µM (inactive)
GI50 (OVCAR-3): > 100 µM (inactive)
GI50 (OVCAR-4): > 100 µM (inactive)
GI50 (OVCAR-5): > 100 µM (inactive)
GI50 (OVCAR-8): > 100 µM (inactive)
GI50 (PC-3): > 100 µM (inactive)
GI50 (RPMI-8226): > 100 µM (inactive)
GI50 (RXF 393): > 100 µM (inactive)
GI50 (SF-268): > 100 µM (inactive)
GI50 (SF-295): > 100 µM (inactive)
GI50 (SF-539): > 100 µM (inactive)
GI50 (SK-MEL-28): > 100 µM (inactive)
GI50 (SK-MEL-2): > 100 µM (inactive)
GI50 (SK-MEL-5): > 100 µM (inactive)
GI50 (SN12C): > 100 µM (inactive)
GI50 (SNB-19): > 100 µM (inactive)
GI50 (SNB-75): 13.8 µM (inactive)
GI50 (SR): > 100 µM (inactive)
GI50 (SW-620): > 100 µM (inactive)
GI50 (T47D): > 100 µM (inactive)
GI50 (TK-10): > 100 µM (inactive)
GI50 (U-251): > 100 µM (inactive)
GI50 (UACC-257): > 100 µM (inactive)
GI50 (UACC-62): > 100 µM (inactive)
GI50 (UO-31): > 100 µM (inactive)
